Read-outs that look alike come from different tables or passages of the source.
Legend:
hCA II = target: T1, hCA II (Homo sapiens, UniProt P00918); experiment: stopped flow CO2 hydrase assay, hCA II; type: biochemical; settings: 15 min incubation
T1 construct: made in house
Protocol: (§1) An applied photophysics stopped-flow instrument has been used for assaying the CA catalysed CO2 hydration activity.[32]
(§2) Phenol red (at a concentration of 0.2 mM) was used as indicator, working at the absorbance maximum of 557 nm, with 20 mM Hepes (pH 7.5), and 20 mM Na2SO4 (for maintaining constant the ionic strength), following the initial rates of the CA-catalysed CO2 hydration reaction for a period of 10 − 100 s. The CO2 concentrations ranged from 1.7 to 17 mM for the determination of the kinetic parameters and inhibition constants. […] The uncatalysed rates were determined in the same manner and subtracted from the total observed rates. Stock solutions of inhibitor (0.1 mM) were prepared in distilled – deionised water, and dilutions up to 0.01 nM were done thereafter with the assay buffer. Inhibitor and enzyme solutions were preincubated together for 15 min at room temperature prior to assay in order to allow for the formation of the E – I complex. […] The inhibition constants were obtained by nonlinear least-squares methods using PRISM 3 and the Cheng – Prusoff equation, as reported earlier[15]^,[33–37]^, and represent the mean from at least three different determinations. All CA isoforms were recombinant ones obtained in-house as reported earlier[12]^,[18]^,[38–45].

hCA XII = target: T2, hCA XII (Homo sapiens, UniProt O43570); experiment: stopped flow CO2 hydrase assay, hCA XII; type: biochemical; settings: 15 min incubation; for Ki: recombinant enzyme, mean from three assays, errors ± 5–10%
T2 construct: made in house
T2 sequence (O43570 25-354): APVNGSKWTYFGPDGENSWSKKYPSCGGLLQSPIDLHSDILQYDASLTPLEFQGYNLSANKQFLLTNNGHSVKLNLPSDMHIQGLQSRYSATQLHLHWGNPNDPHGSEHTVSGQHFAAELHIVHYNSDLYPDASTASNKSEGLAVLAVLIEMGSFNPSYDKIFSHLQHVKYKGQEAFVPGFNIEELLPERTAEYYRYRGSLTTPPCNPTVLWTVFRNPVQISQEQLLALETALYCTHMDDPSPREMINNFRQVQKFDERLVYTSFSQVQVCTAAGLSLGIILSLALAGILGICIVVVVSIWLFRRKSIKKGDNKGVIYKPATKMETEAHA
Protocol: as §1, §2

hCA IX = target: T3, hCA IX (Homo sapiens, UniProt Q16790); experiment: stopped flow CO2 hydrase assay, hCA IX; type: biochemical; settings: recombinant enzyme, 15 min incubation, mean from three assays, errors ± 5–10%
T3 construct: made in house
Protocol: as §1, §2

hCA I = target: T4, hCA I (Homo sapiens, UniProt P00915); experiment: stopped flow CO2 hydrase assay, hCA I; type: biochemical; settings: 15 min incubation; for Ki: recombinant enzyme, mean from three assays, errors ± 5–10%
T4 construct: made in house
T4 sequence (P00915 whole entry): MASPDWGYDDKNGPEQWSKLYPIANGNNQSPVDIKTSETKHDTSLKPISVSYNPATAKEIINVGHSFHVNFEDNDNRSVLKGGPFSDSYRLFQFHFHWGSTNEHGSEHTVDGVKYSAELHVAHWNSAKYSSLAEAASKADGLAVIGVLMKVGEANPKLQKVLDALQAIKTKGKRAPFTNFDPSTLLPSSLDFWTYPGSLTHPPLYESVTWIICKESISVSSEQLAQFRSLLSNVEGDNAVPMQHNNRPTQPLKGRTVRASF
Protocol: as §1, §2

[1] = recombinant enzyme, mean from three assays, errors ± 5–10%, read-out: KI (nM) hCA II

Row | SMILES | Ki (hCA II; [1]) | Ki (hCA XII) | Ki (hCA IX) | Ki (hCA I) | inhibition of hCA I in words (hCA I) | Ki (hCA II; rounded, read-out: Ki hCA II) | melting point | inhibition of hCA II in words (hCA II) | inhibition of hCA XII in words (hCA XII)
1 | Cc1ccc2c(c1)C=NS(=O)(=O)O2 [2a, 6-Methyl-1,2,3-benzoxathiazine 2,2-dioxide] | 116 nM | 98.2 nM | 72 nM | 25700 nM | – | – | – | – | –
2 | COc1ccc2c(c1)C=NS(=O)(=O)O2 [2b, 6-Methoxy-1,2,3-benzoxathiazine 2,2-dioxide] | 168 nM | 75.1 nM | 62.8 nM | > 100000 nM | did not inhibit | – | – | – | –
3 | O=S1(=O)N=Cc2cc(F)ccc2O1 [2c, 6-Fluoro-1,2,3-benzoxathiazine 2,2-dioxide] | 71.8 nM | 121 nM | 58.3 nM | 3320 nM | – | – | – | – | –
4 | O=S1(=O)N=Cc2cc(Br)ccc2O1 [2d, 6-Bromo-1,2,3-benzoxathiazine 2,2-dioxide] | 8320 nM | 186 nM | 27.4 nM | > 100000 nM | did not inhibit | 8300 nM | – | – | –
5 | Cc1ccc2c(c1)OS(=O)(=O)N=C2 [2e, 7-Methyl-1,2,3-benzoxathiazine 2,2-dioxide] | 78.9 nM | 58 nM | 53.1 nM | 657 nM | – | – | – | – | –
6 | COc1ccc2c(c1)OS(=O)(=O)N=C2 [2f, 7-Methoxy-1,2,3-benzoxathiazine 2,2-dioxide] | 55.2 nM | 83.1 nM | 39.7 nM | 987 nM | – | – | – | – | –
7 | O=S1(=O)N=Cc2ccc(F)cc2O1 [2g, 7-Fluoro-1,2,3-benzoxathiazine 2,2-dioxide] | 86.7 nM | 112 nM | 55.4 nM | 448 nM | – | – | – | – | –
8 | O=S1(=O)N=Cc2ccc(Br)cc2O1 [2h, 7-Bromo-1,2,3-benzoxathiazine 2,2-dioxide] | 45.1 nM | 70.1 nM | 22.3 nM | 46500 nM | – | – | – | – | –
9 | COc1cccc2c1OS(=O)(=O)N=C2 [2i, 8-Methoxy-1,2,3-benzoxathiazine 2,2-dioxide] | 39 nM | 63.4 nM | 73.6 nM | 1520 nM | – | – | – | – | –
10 | O=S1(=O)N=Cc2cccc(F)c2O1 [2j, 8-Fluoro-1,2,3-benzoxathiazine 2,2-dioxide] | 89.2 nM | 34.7 nM | 65.9 nM | 466 nM | – | – | – | – | –
11 | O=S1(=O)N=Cc2cccc(Br)c2O1 [2k, 8-Bromo-1,2,3-benzoxathiazine 2,2-dioxide] | 113 nM | 86.3 nM | 41.8 nM | 788 nM | – | – | – | – | –

The next lines start with results.

Row | Ki (hCA II; [1]) | Ki (hCA XII) | Ki (hCA IX) | Ki (hCA I) | inhibition of hCA I in words (hCA I) | Ki (hCA II; rounded, read-out: Ki hCA II) | melting point | inhibition of hCA II in words (hCA II) | SMILES | inhibition of hCA XII in words (hCA XII)
12 | 9870 nM | 12600 nM | 5250 nM | > 100000 nM | – | – | 156 to 157 °C | – | O=S1(=O)N=Cc2c(cccc2-c2ccccc2)O1 [5a, 5-Phenyl-1,2,3-benzoxathiazine 2,2-dioxide] | –
13 | 14800 nM | 7460 nM | 4140 nM | > 100000 nM | – | – | – | – | O=S1(=O)N=Cc2c(cccc2-c2ccc(F)cc2)O1 [5b, 5-(4-Fluorophenyl)-1,2,3-benzoxathiazine 2,2-dioxide] | –
14 | 36900 nM | 18000 nM | 10900 nM | > 100000 nM | – | – | 177 to 178 °C | – | COc1ccc(-c2cccc3c2C=NS(=O)(=O)O3)cc1 [5c, 5–(4-Methoxyphenyl)-1,2,3-benzoxathiazine 2,2-dioxide] | –
15 | > 100000 nM | 45300 nM | > 100000 nM | > 100000 nM | – | – | 230 to 231 °C | not inhibited | O=S1(=O)N=Cc2c(cccc2-c2ccc(Cl)c(Cl)c2)O1 [5d, 5-(3,4-Dichlorophenyl)-1,2,3-benzoxathiazine 2,2-dioxide] | –
16 | > 100000 nM | > 100000 nM | > 100000 nM | > 100000 nM | – | – | – | not inhibited | CCOC(=O)c1ccc(-c2cccc3c2C=NS(=O)(=O)O3)cc1 [5e, Ethyl 4-(2,2-dioxido-1,2,3-benzoxathiazin-5-yl)benzoate] | did not exhibit any inhibitory properties
17 | 7.7 nM | 78.3 nM | 28.6 nM | 5680 nM | – | – | 171 to 172 °C | – | O=S1(=O)N=Cc2ccc(-c3ccccc3)cc2O1 [5f, 7-Phenyl-1,2,3-benzoxathiazine 2,2-dioxide] | –
18 | 2.1 nM | 8.2 nM | 69.8 nM | 15200 nM | – | – | 164 to 165 °C | – | O=S1(=O)N=Cc2ccc(-c3ccc(F)cc3)cc2O1 [5g, 7-(4-Fluorophenyl)-1,2,3-benzoxathiazine 2,2-dioxide] | –
19 | 14.3 nM | 36.4 nM | 45.2 nM | 30300 nM | – | – | 181 to 182 °C | – | COc1ccc(-c2ccc3c(c2)OS(=O)(=O)N=C3)cc1 [5h, 7-(4-Methoxyphenyl)-1,2,3-benzoxathiazine 2,2-dioxide] | –
20 | 0.8 nM | 90.5 nM | 38 nM | 356 nM | – | – | 204 to 205 °C | – | CCOC(=O)c1ccc(-c2ccc3c(c2)OS(=O)(=O)N=C3)cc1 [5i, Ethyl 4-(2,2-dioxido-1,2,3-benzoxathiazin-7-yl)benzoate] | –
21 | 0.5 nM | 61.8 nM | 49.1 nM | 668 nM | – | – | 164 to 165 °C | – | O=S1(=O)N=Cc2cccc(-c3ccccc3)c2O1 [5j, 8-Phenyl-1,2,3-benzoxathiazine 2,2-dioxide] | –
22 | 5.6 nM | 12.4 nM | 32.3 nM | 1850 nM | – | – | 123 to 124 °C | – | O=S1(=O)N=Cc2cccc(-c3ccc(F)cc3)c2O1 [5k, 8-(4-Fluorophenyl)-1,2,3-benzoxathiazine 2,2-dioxide] | –
23 | 12.3 nM | 7.3 nM | 62.7 nM | 4260 nM | – | – | 133 to 134 °C | – | COc1ccc(-c2cccc3c2OS(=O)(=O)N=C3)cc1 [5l, 8-(4-Methoxyphenyl)-1,2,3-benzoxathiazine 2,2-dioxide] | –
24 | 9.5 nM | 4.8 nM | 40.8 nM | 6710 nM | – | – | 165 to 166 °C | – | O=S1(=O)N=Cc2cccc(-c3ccc(Cl)c(Cl)c3)c2O1 [5m, 8-(3,4-Dichlorophenyl)-1,2,3-benzoxathiazine 2,2-dioxide] | –
